Measurements from patent US12180084B2, “Cerium (III) carbonate formulations” (THE REGENTS OF THE UNIVERSITY OF CALIFORNIA, priority 2019, dated 2024).

Assay: CR dye photodegradation in TiO2-based sunscreen film (Neutrogena Broad Spectrum Mineral Sunscreen SPF 60+)
Method: Films on filter paper were fabricated and photoreactor experiments were conducted exactly the same way as described in Example 7.3, using CR dye, except UV irradiation in the photoreactor was conducted for a period of 4 h. These films contained either no UV-protecting agent, 3.0 wt. % of Ce2(CO3)3·6H2O that was synthesized according to Example 3, 3.0 wt. % of commercial Ce2(CO3)3·xH2O (Acros Organics), or 3.0 wt. % of ZnO (NANOBYK-3840). […] Upon adding 3 wt. % of Ce2(CO3)3·6H2O synthesized according to Example 3 to the sunscreen formulation, a decrease in the amount of CR dye photodegradation to 15±1% is observed. […] When cerium carbonate consisting of Ce2(CO3)3·xH2O from Acros Organics is instead used in place of Ce2(CO3)3·6H2O synthesized according to Example 3, photoprotection with 24±2% CR dye photodegradation is observed. The properties of Ce2(CO3)3·xH2O from Acros Organics have been ascribed in Example 4, and these aspects are borne out in conjunction with sunscreen-based formulations here as well. When instead of cerium carbonate ZnO (NANOBYK-3840) is used as a UV-protecting agent, less effect on CR dye photodegradation is observed. This is a similar outcome to observations with MB dye and ZnO-based sunscreen formulation in Example 7.2.
The amount of Ce2(CO3)3·6H2O synthesized according to Example 3 that was incorporated into the TiO2-based sunscreen was increased to 5.0 wt. %, and results are shown in FIGS. 23A-23B and are summarized in Table 4. […] There is a slight diminishing return for adding Ce2(CO3)3·6H2O both here and in Example 7.2, but the effect of increasing Ce2(CO3)3·6H2O on organic-molecule photoprotection is much more pronounced than in the case of ZnO.

**Q.** With `O.O.O.O.O.O.O=C([O-])[O-].O=C([O-])[O-].O=C([O-])[O-].[Ce+3].[Ce+3]` [Ce2(CO3)3·6H2O] as the molecule, how does the “% of CR dye photodegradation after 4 h of UV irradiation in photoreactor” value (“% of CR dye photodegradation” below) (3.0 wt. % added agent relative to sunscreen weight, listed as Ce2(CO3)3·6H2O synthesized according to Example 3) read?
**A.** 15±1%

**Q.** What about the “% of CR dye photodegradation” value (3.0 wt. % added agent relative to sunscreen weight, listed as Ce2(CO3)3•6H2O synthesized according to Example 3) of the same molecule?
**A.** 15 ± 1%

**Q.** And the “% of CR dye photodegradation” value (5.0 wt. % added agent relative to sunscreen weight)?
**A.** 10 ± 1%
